Assay results from the supplement of paper PMC10307832.

Experiments:
Assay in all cases: relative viability (nuclei count vs DMSO), 5 days (fraction); higher = more cells survive
CAP-232 + Foretinib = compound: C[C@H]([C@@H](C(=O)N)NC(=O)[C@@H]1CSSC[C@@H](C(=O)N[C@H](C(=O)N[C@@H](C(=O)N[C@H](C(=O)N1)CCCCN)CC2=CNC3=CC=CC=C32)CC4=CC=C(C=C4)O)NC(=O)[C@@H](CC5=CC=CC=C5)N)O [CAP-232] + COc1cc2c(Oc3ccc(NC(=O)C4(C(=O)Nc5ccc(F)cc5)CC4)cc3F)ccnc2cc1OCCCN1CCOCC1 [Foretinib] (partner 0.25 µM)
How it was run: (§1)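 Each reported value is a median over duplicate plates. It expresses relative viability: treated-well nuclei count divided by vehicle-well nuclei count. Lung cancer cell lines in 1536-well plates were dosed by pin tool a day after seeding, alone with one drug or with a fixed anchor-drug dose plus five library-drug doses (not always all listed) in √10 steps, and nuclei were counted after 5 days.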

CAP-232 + Olaparib = compound: C[C@H]([C@@H](C(=O)N)NC(=O)[C@@H]1CSSC[C@@H](C(=O)N[C@H](C(=O)N[C@@H](C(=O)N[C@H](C(=O)N1)CCCCN)CC2=CNC3=CC=CC=C32)CC4=CC=C(C=C4)O)NC(=O)[C@@H](CC5=CC=CC=C5)N)O [CAP-232] + O=C(c1cc(Cc2n[nH]c(=O)c3ccccc23)ccc1F)N1CCN(C(=O)C2CC2)CC1 [Olaparib] (partner 8 µM)
How it was run: as §1

CAP-232 + Dasatinib = compound: C[C@H]([C@@H](C(=O)N)NC(=O)[C@@H]1CSSC[C@@H](C(=O)N[C@H](C(=O)N[C@@H](C(=O)N[C@H](C(=O)N1)CCCCN)CC2=CNC3=CC=CC=C32)CC4=CC=C(C=C4)O)NC(=O)[C@@H](CC5=CC=CC=C5)N)O [CAP-232] + Cc1nc(Nc2ncc(C(=O)Nc3c(C)cccc3Cl)s2)cc(N2CCN(CCO)CC2)n1 [Dasatinib] (partner 0.075 µM)
How it was run: as §1

CAP-232 + Navitoclax = compound: C[C@H]([C@@H](C(=O)N)NC(=O)[C@@H]1CSSC[C@@H](C(=O)N[C@H](C(=O)N[C@@H](C(=O)N[C@H](C(=O)N1)CCCCN)CC2=CNC3=CC=CC=C32)CC4=CC=C(C=C4)O)NC(=O)[C@@H](CC5=CC=CC=C5)N)O [CAP-232] + CC1(C)CCC(c2ccc(Cl)cc2)=C(CN2CCN(c3ccc(C(=O)NS(=O)(=O)c4ccc(N[C@H](CCN5CCOCC5)CSc5ccccc5)c(S(=O)(=O)C(F)(F)F)c4)cc3)CC2)C1 [Navitoclax] (partner 0.5 µM)
How it was run: as §1

CAP-232 + Decitabine = compound: C[C@H]([C@@H](C(=O)N)NC(=O)[C@@H]1CSSC[C@@H](C(=O)N[C@H](C(=O)N[C@@H](C(=O)N[C@H](C(=O)N1)CCCCN)CC2=CNC3=CC=CC=C32)CC4=CC=C(C=C4)O)NC(=O)[C@@H](CC5=CC=CC=C5)N)O [CAP-232] + Nc1ncn([C@H]2C[C@H](O)[C@@H](CO)O2)c(=O)n1 [Decitabine] (partner 2 µM)
How it was run: as §1

Row | Cell Line | relative viability (CAP-232 + Foretinib; first compound 0.4 µM) | relative viability (CAP-232 + Foretinib; first compound 1.265 µM) | relative viability (CAP-232 + Foretinib; first compound 4 µM) | relative viability (CAP-232 + Foretinib; first compound 12.65 µM) | relative viability (CAP-232 + Olaparib; first compound 0.4 µM) | relative viability (CAP-232 + Olaparib; first compound 4 µM) | relative viability (CAP-232 + Olaparib; first compound 12.65 µM) | relative viability (CAP-232 + Dasatinib; first compound 0.4 µM) | relative viability (CAP-232 + Dasatinib; first compound 1.265 µM) | relative viability (CAP-232 + Dasatinib; first compound 4 µM) | relative viability (CAP-232 + Dasatinib; first compound 12.65 µM) | relative viability (CAP-232 + Navitoclax; first compound 0.4 µM) | relative viability (CAP-232 + Navitoclax; first compound 1.265 µM) | relative viability (CAP-232 + Navitoclax; first compound 4 µM) | relative viability (CAP-232 + Navitoclax; first compound 12.65 µM) | relative viability (CAP-232 + Decitabine; first compound 0.4 µM) | relative viability (CAP-232 + Decitabine; first compound 4 µM) | relative viability (CAP-232 + Decitabine; first compound 12.65 µM) | relative viability (CAP-232 + Olaparib; first compound 1.265 µM) | relative viability (CAP-232 + Decitabine; first compound 1.265 µM)
1 | NCI-H1395 | 0.971 | 0.997 | 0.854 | 1.11 | 0.436 | 0.462 | 0.264 | 0.413 | 0.445 | 0.426 | 0.388 | 1.14 | 1 | 1.07 | 0.927 | 0.777 | 0.745 | 0.537 | – | –
2 | NCI-H1666 | 0.946 | 0.989 | 0.892 | 0.821 | 0.819 | 0.816 | 0.664 | 0.904 | 0.757 | 0.893 | 0.678 | 0.89 | – | 1.08 | 0.931 | 0.711 | 0.814 | 0.796 | 0.75 | 0.735
3 | ABC-1 | 0.772 | 0.876 | 1.35 | 0.677 | 0.778 | 0.665 | 0.368 | 0.582 | 0.562 | 0.53 | 0.448 | – | – | – | – | 1.05 | 0.984 | 0.887 | – | –
4 | NCI-H1703 | 0.304 | 0.364 | 0.323 | 0.409 | 0.388 | 0.315 | 0.388 | – | – | – | – | 1.09 | 0.901 | 0.964 | 0.793 | – | – | – | 0.468 | –
5 | NCI-H661 | 0.986 | 0.951 | 1.05 | 1.02 | 0.768 | 0.8 | 0.683 | 0.971 | 0.663 | 0.96 | 0.648 | – | – | – | – | 0.546 | 0.583 | 0.446 | 0.771 | 0.543
6 | LCLC-103H | 0.838 | 0.735 | 0.802 | 0.827 | 0.882 | 0.733 | 0.751 | 0.528 | 0.455 | 0.499 | 0.403 | – | – | – | – | 0.777 | 0.735 | 0.704 | 0.752 | 0.687
7 | NCI-H2342 | 0.944 | 1.03 | 0.995 | 0.995 | 0.447 | 0.46 | 0.396 | 0.308 | 0.334 | 0.291 | 0.321 | – | – | – | – | 0.714 | 0.736 | 0.666 | 0.441 | 0.81
8 | SW 900 | 0.819 | 0.816 | 0.96 | 0.858 | 0.766 | 0.698 | 0.99 | 0.644 | 0.614 | 0.64 | 0.591 | – | – | – | – | 0.442 | 0.355 | 0.454 | 0.883 | 0.369
9 | NCI-H522 | – | – | – | – | 0.78 | 0.638 | 0.789 | 1.1 | 0.73 | 0.914 | 0.735 | – | – | – | – | 0.677 | 0.572 | 0.658 | 0.587 | 0.623
10 | CAL-12T | 1.06 | 1.06 | 0.927 | 0.85 | 0.778 | 0.696 | 0.6 | 0.32 | 0.409 | 0.521 | 0.138 | 1.05 | 1.21 | 1.3 | 0.94 | – | – | – | 0.767 | –
11 | A549 | 1.01 | 0.998 | 0.935 | 0.369 | 0.211 | 0.396 | 0.326 | – | – | – | – | 1.33 | 1.19 | 1.25 | 0.482 | 0.267 | 0.33 | 0.239 | 0.292 | 0.212
12 | NCI-H650 | 1.01 | 1 | 0.969 | 0.926 | 0.434 | 0.341 | 0.361 | 0.509 | 0.426 | 0.521 | 0.417 | – | – | – | – | 0.342 | 0.278 | 0.156 | 0.427 | 0.278
13 | NCI-H2228 | 0.826 | 0.938 | 1.09 | 0.485 | 0.766 | 0.92 | 0.361 | 0.482 | 0.565 | 0.479 | 0.365 | 0.84 | 0.96 | 0.473 | 1.01 | – | – | – | 0.73 | –
14 | NCI-H1792 | – | – | – | – | 0.51 | 0.623 | 0.235 | 0.811 | 0.743 | 0.95 | 0.78 | 1.2 | 0.638 | 0.656 | 0.452 | 0.636 | 0.555 | 0.365 | 0.642 | 0.54
15 | HCC-44 | – | – | – | – | 0.99 | 0.943 | 1.04 | – | – | – | – | 1.03 | 0.977 | 1.16 | 1.14 | 1.03 | 0.972 | 0.935 | 0.975 | 0.962
16 | IA-LM | 1.15 | 1.14 | 1.22 | 0.386 | 0.784 | 0.993 | 0.405 | – | – | – | – | 0.78 | 0.871 | 0.805 | 0.372 | – | – | – | 0.86 | –
17 | NCI-H358 | 0.678 | 0.841 | 0.686 | 0.563 | 0.454 | 0.783 | 0.465 | 0.183 | 0.151 | 0.124 | 0.179 | – | – | – | – | 0.184 | 0.229 | 0.18 | 0.677 | 0.198
18 | NCI-H1563 | 0.972 | 0.886 | 0.939 | 0.639 | – | – | – | 0.449 | 0.448 | 0.477 | 0.432 | – | – | – | – | – | – | – | – | –
